Assay results reported in patent publication US9549994B2, “Compositions of nicardipine and sulfoalkylated β-cyclodextrin” (EKR Therapeutics, Inc., priority 2006, dated 2017).

What was measured:
[1] = cited from earlier work
[2] = Phase-solubility study of nicardipine HCl and CAPTISOL as a function of pH; assay type: physicochemical; settings: FIG. 1
Method: in this phase-solubility study, nicardipine HCl, in amounts that exceeded its solubility, was taken into vials containing buffers in the pH range of 3.6-7.4 and containing CAPTISOL® in the concentration range of 2-40% w/v. These evaluations were also done for buffer solutions containing no CAPTISOL®. The vials were sealed and shaken at room temperature until equilibrium was reached. Subsequently, test sample aliquots were withdrawn, filtered, and drug concentration was determined by RP-HPLC with UV detection.

| SMILES | solubility in water [1] | solubility as a function of CAPTISOL concentration ([2]; at a given pH value, CAPTISOL 2-40% w/v) | solubility as a function of pH ([2]; buffers pH 3.6-7.4, room temperature) |
| --- | --- | --- | --- |
| COC(=O)C1=C(C)NC(C)=C(C(=O)OCCN(C)Cc2ccccc2)C1c1cccc([N+](=O)[O-])c1 (stereo not drawn) [Nicardipine, nicardipine] | only slightly soluble in water |  |  |
| COC(=O)C1=C(C)NC(C)=C(C(=O)OCCN(C)Cc2ccccc2)C1c1cccc([N+](=O)[O-])c1.Cl (racemic) [nicardipine HCl, (±)-2-(benzyl-methylamino)ethyl methyl 1,4-dihydro-2,6-dimethyl-4-(m-nitrophenyl)-3,5-pyridinedicarboxylate monohydrochloride] |  | increased | decreased with increased pH |
